The source made the active and inactive calls. The rule behind the calls is not given here.
How the values were obtained:
HEK293 = assay: Induction of cell surface translocation of MR1 in human HEK293 cells expressing N-terminal HiBit-tagged human beta2m/MR1 assessed as increase in MR1 cell surface expression level at 10 uM incubated for 8 hrs followed by labeling with PE-conjugated anti-hMR1 antibody by flow cytometry analysis; format: functional, cell-based
TG40 cell [1] = assay: Activation of mouse TG40 cells transfected with MAIT-alpha/betaTCR co-cultured with human HeLa cells overexpressing human MR1 assessed as upregulation of CD69 surface expression […] at 10 uM incubated for 24 hrs by flow cytometry; format: functional, cell-based
HeLa [2] = assay: Induction of cell surface translocation of MR1 in human HeLa overexpressing MR1 assessed as increase in MR1 cell surface levels at 10 uM incubated for 8 hrs followed by labeling with PE-conjugated anti-hMR1 antibody by flow cytometry analysis; format: functional, cell-based
[3] = Induction of cell surface translocation of MR1 in human HeLa overexpressing MR1 assessed as increase in MR1 cell surface levels incubated for 8 hrs followed by labeling with PE-conjugated anti-hMR1 antibody by flow cytometry analysis; format: functional, cell-based
[4] = Inhibition of 5-OR-RU induced activation of mouse TG40 cells transfected with MAIT-alpha/betaTCR co-cultured with human HeLa cells overexpressing human MR1 assessed as upregulation of CD69 surface expression […] incubated for 24 hrs by flow cytometry; format: functional, cell-based; conditions: TG40 cell
HeLa [5] = assay: Cytotoxicity against human HeLa cells overexpressing MR1 assessed as reduction in cell viability at 3 to 100 uM incubated for 8 hrs by MTS assay; format: toxicity, cell-based; conditions: dose 3-100 µM
HeLa [6] = assay: Cytotoxicity against human HeLa cells overexpressing MR1 assessed as reduction in cell viability at 3 to 100 uM incubated for 24 hrs by MTS assay; format: toxicity, cell-based; conditions: dose 3-100 µM
[7] = Cytotoxicity against mouse TG40 cells transfected with MAIT-alpha/betaTCR assessed as reduction in cell viability at 3 to 10 uM incubated for 24 hrs by MTS assay; format: toxicity, cell-based; conditions: dose 3-10 µM
[8] = Cytotoxicity against mouse TG40 cells transfected with MAIT-alpha/betaTCR assessed as reduction in cell viability at 30 to 100 uM incubated for 24 hrs by MTS assay; format: toxicity, cell-based; conditions: dose 30-100 µM
HeLa [9] = assay: Effect on MR1-specific presentation in human HeLa overexpressing MR1 assessed as increase in HLA-A/B/C cell surface levels incubated for 8 hrs followed by labeling with PE-conjugated anti-hMR1 antibody and APC-conjugated anti-HLA-A/B/C antibody by flow cytometry analysis; format: functional, cell-based
TG40 cell [10] = assay: Activation of mouse TG40 cells transfected with MAIT-alpha/betaTCR co-cultured with human HEK293 cells expressing N-terminal HiBit-tagged human beta2m/MR1 assessed as upregulation of CD69 surface expression on TG40 cells at 1 uM incubated for 24 hrs by flow cytometry; format: functional, cell-based
TG40 cell [11] = assay: Activation of mouse TG40 cells transfected with MAIT-alpha/betaTCR co-cultured with human […] expressing N-terminal HiBit-tagged human beta2m/MR1 assessed as upregulation of CD69 surface expression […] at 1 uM incubated for 24 hrs by flow cytometry; format: functional, cell-based
HeLa [12] = assay: Induction of cell surface translocation of MR1 in human HeLa overexpressing MR1 assessed as increase in MR1 cell surface levels at 0.1 to 10 uM incubated for 8 hrs followed by labeling with PE-conjugated anti-hMR1 antibody by flow cytometry analysis; format: functional, cell-based; conditions: dose 0.1-10 µM
TG40 cell [13] = assay: Activation of mouse TG40 cells transfected with MAIT-alpha/betaTCR co-cultured with human HEK293 cells expressing N-terminal HiBit-tagged human beta2m/MR1 assessed as upregulation of CD69 surface expression on TG40 cells at 10 uM incubated for 24 hrs by flow cytometry; format: functional, cell-based

## O=Cc1ccc(O)c(C(=O)O)c1
HEK293
  Activity: Active

## COc1cc(/C=C/C=O)c(OC)cc1O
TG40 cell [1]
  Activity: inactive
HeLa [2]
  Activity: Active
[3]
  EC50: 3.89 µM
[4]
  IC50: 7.34 µM
HeLa [5]
  Activity: Non-Toxic
HeLa [6]
  Activity: Non-Toxic
[7]
  Activity: Non-Toxic
[8]
  Activity: Toxic
HeLa [9]
  Activity: inactive

## CC(C)=CCc1cc(/C=C/C=O)ccc1O
HeLa [2]
  Activity: inactive

## COc1ccc(O)c(/C=C/C=O)c1
HeLa [2]
  Activity: inactive

## CCCCCC/C(C=O)=C\c1ccccc1
HeLa [2]
  Activity: inactive

## COc1ccccc1/C=C/C=O
HeLa [2]
  Activity: inactive

## COc1cc(CCC=O)ccc1O
HeLa [2]
  Activity: inactive

## COc1cc(/C=C/C=O)cc(OC)c1O
HeLa [2]
  Activity: inactive

## CN(C)c1cc(/C=C/C=O)ccc1O
HeLa [2]
  Activity: inactive

## CC(=O)/C=N/c1c(NC[C@H](O)[C@H](O)[C@H](O)CO)[nH]c(=O)[nH]c1=O
HEK293
  Activity: Active
TG40 cell [10]
  Activity: Active
TG40 cell [11]
  Activity: inactive

## COc1ccc(/C=C/C=O)cc1O
HeLa [2]
  Activity: inactive

## O=CC1=Cc2ccc(O)cc2OC1
HeLa [2]
  Activity: inactive

## COc1ccc(/C=C/C=O)cc1
HeLa [2]
  Activity: inactive

## O=C/C=C/c1ccc(O)c(O)c1 [CAFFEOYL ALDEHYDE]
TG40 cell [1]
  Activity: inactive
HeLa [2]
  Activity: Active
[3]
  EC50: 2.58 µM
HeLa [5]
  Activity: Non-Toxic
HeLa [6]
  Activity: Non-Toxic
[7]
  Activity: Non-Toxic
[8]
  Activity: Toxic
HeLa [9]
  Activity: inactive

## CC(C)(C)c1cc(C=O)c(O)c(C=O)c1
HeLa [12]
  Activity: Dose-Dependent Effect
TG40 cell [1]
  Activity: inactive

## COc1cc(/C=C/C(=O)O)ccc1O
HeLa [2]
  Activity: inactive

## O=C/C=C/c1ccc(O)cc1
HeLa [2]
  Activity: inactive

## COc1cc(/C=C/C=O)ccc1O [CONIFERYL ALDEHYDE]
HeLa [12]
  Activity: Dose-Dependent Effect
TG40 cell [1]
  Activity: inactive
[3]
  EC50: 9.03 µM
[4]
  IC50: 11.6 µM
HeLa [5]
  Activity: Non-Toxic
HeLa [6]
  Activity: Non-Toxic
[7]
  Activity: Non-Toxic
[8]
  Activity: Toxic
HeLa [9]
  Activity: inactive

## Nc1nc2ncc(C=O)nc2c(=O)[nH]1
[3]
  EC50: 1.63 µM
[4]
  IC50: 0.505 µM
HeLa [5]
  Activity: Non-Toxic
HeLa [6]
  Activity: Non-Toxic
[7]
  Activity: Non-Toxic
[8]
  Activity: Toxic

## O=Cc1c(O)cccc1I
HeLa [12]
  Activity: Dose-Dependent Effect
TG40 cell [1]
  Activity: inactive

## COc1cc(C#C[Si](C)(C)C)c(C=O)cc1OC
HeLa [12]
  Activity: Dose-Dependent Effect
TG40 cell [1]
  Activity: inactive

## COc1cc(O)ccc1/C=C/C=O
TG40 cell [1]
  Activity: inactive
HeLa [2]
  Activity: Active
[3]
  EC50: 5.27 µM
[4]
  IC50: 7.93 µM
HeLa [5]
  Activity: Non-Toxic
HeLa [6]
  Activity: Non-Toxic
[7]
  Activity: Non-Toxic
[8]
  Activity: Toxic
HeLa [9]
  Activity: inactive

## COc1cccc(/C=C/C=O)c1
HeLa [2]
  Activity: inactive

## CC(=O)Nc1nc(O)c2nc(C=O)cnc2n1
HEK293
  Activity: Active
TG40 cell [13]
  Activity: inactive
[3]
  EC50: 0.153 µM
[4]
  IC50: 0.017 µM
HeLa [5]
  Activity: Non-Toxic
HeLa [6]
  Activity: Non-Toxic
[7]
  Activity: Non-Toxic
[8]
  Activity: Toxic
HeLa [9]
  Activity: inactive

## COc1cc(/C=C/C#N)ccc1O
HeLa [2]
  Activity: inactive

## COc1ccc(/C=C(\C)C=O)cc1
HeLa [2]
  Activity: inactive

## COc1cc(/C=C/C=O)c(OC)c2c1OCO2
HeLa [2]
  Activity: inactive

## COc1cc(/C=C/C=O)cc2c1OCO2
HeLa [2]
  Activity: inactive

## Cc1ccc(/C=C/C=O)cc1
HeLa [2]
  Activity: inactive

## COc1cc(/C=C/C=C/C=O)ccc1O
HeLa [2]
  Activity: inactive

## O=Cc1ccccc1C#C/C=C/CO
HeLa [12]
  Activity: Dose-Dependent Effect
TG40 cell [1]
  Activity: inactive

## COc1cc(C=O)ccc1O
HeLa [2]
  Activity: inactive

## COc1cc(/C=C/C=O)c[nH]c1=O
HeLa [2]
  Activity: inactive

## O=C/C=C/c1ccccc1O
HeLa [2]
  Activity: inactive

## O=C/C=C/c1ccccc1
HeLa [2]
  Activity: inactive

## COc1cc(I)c(C=O)cc1OC
HeLa [12]
  Activity: Dose-Dependent Effect
TG40 cell [1]
  Activity: inactive

## COc1cc(/C=C/C(C)=O)ccc1O
HeLa [2]
  Activity: inactive

## COCCOC(=O)/C(=C\c1cc(C(C)(C)C)c(O)c(C(C)(C)C)c1)C(C)=O
HeLa [12]
  Activity: Dose-Dependent Effect
TG40 cell [1]
  Activity: inactive
